Paper PMC12301332, “Biased antagonism of a series of bicyclic CXCR2 intracellular allosteric modulators” (Frontiers in Pharmacology, 2025)

Legend:
CXCR2 [1] = molecular target: T1, CXCR2 (Homo sapiens, UniProt P25025); assay: NanoBRET-based G protein activation inhibition assay (REGA-SIGN Gαi1 dissociation) in HEK293A.CXCR2 cells; assay type: cell-based; conditions: n = 3; for IC50: mean; for Imax Gαi1 (maximum observed inhibitory effect): normalized to Imax of navarixin = 100%
T1 construct: expressed in transfected cells
T1 sequence (P25025 1-360): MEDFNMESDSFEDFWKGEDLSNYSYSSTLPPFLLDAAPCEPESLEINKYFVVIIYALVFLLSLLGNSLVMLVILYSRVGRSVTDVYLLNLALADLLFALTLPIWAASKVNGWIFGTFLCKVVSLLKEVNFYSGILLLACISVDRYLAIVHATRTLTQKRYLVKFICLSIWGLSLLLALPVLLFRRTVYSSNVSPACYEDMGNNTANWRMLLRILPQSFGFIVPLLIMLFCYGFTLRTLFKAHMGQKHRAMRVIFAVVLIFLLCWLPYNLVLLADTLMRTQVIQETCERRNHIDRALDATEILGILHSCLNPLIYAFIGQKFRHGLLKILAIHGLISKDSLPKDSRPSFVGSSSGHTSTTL
Procedure: Cells were trypsinized and resuspended at 3 × 10^5 cell/mL in the growth medium, whereafter they were incubated for 2 hours at RT. Cells were transfected in suspension using FuGENE® HD Transfection Reagent at a 3:1 reagent to DNA ratio in Opti-MEMTM I Reduced-Serum Medium, with the final DNA concentration of 1 μg/μL. The transfection mixture was incubated for 10 min at RT before adding it to the cell suspension. Transfected cells were seeded at 3.0 × 10^4 cells/well in a white, clear, flat-bottom 96-well plate coated with 100 μg/mL poly-D-lysin ([…], Sigma Aldrich) and incubated for 48 h at 37°C and 5% CO2. […] (2023)]. Following the 48-h incubation period, cells were washed with the assay buffer. Compounds were serially diluted in 1:500 Nano-Glo® Vivazine^TM working solution (#N2581, Promega), and 90 μL of compound/Vivazine mix was added, followed by incubation for 45 min at 37°C and 5% CO2. Plates were transferred to the FLIPR Penta system (Molecular Devices) at 37°C, and all steps onward are automated and performed by the FLIPR Penta system. After a 10-min equilibration period, the baseline BRET signal was determined by five consecutive reads followed by automatic administration of 10 μL of 10× ligand (Table 1) to the cell plate. Changes in the BRET signal was measured for 10 min, with each read spaced by 2.5 s. […] BRET ratios were extracted from ScreenWorks software (Molecular Devices) and represent the ratio between the acceptor emission of […]2 or mNG (G protein or β-arrestin recruitment, respectively) and NLuc donor emission. The basal BRET ratio was defined as the average BRET ratio of the five consecutive readings preceding ligand addition. Changes in BRET values post ligand administration (ΔBRET) were calculated for each well as a percentage difference to the previously defined basal BRET ratio. Average ΔBRET values were baseline corrected by subtracting the average negative control BRET ratio (unstimulated condition). […] AUCs were normalized to the positive control (stimulated condition); whereafter, dose-response curves were fitted to log (inhibitor) vs response (three parameters) in GraphPad 10.2.0 (GraphPad Software). […] Calculation 1: calculation of the BRET signal. • 1. […] NC correctedΔBRET=Δ[…]. • 4. a. Neg AUC of NC correctedΔBRET=Gα activation read out. b. Pos AUC of NC correctedΔBRET=β-arrestin recruitment.

CXCR2 [2] = molecular target: T1, CXCR2; assay: NanoBRET β-arrestin1 recruitment inhibition assay (NanoLux) in HEK293A cells; assay type: cell-based; conditions: n = 3; for IC50: mean, read-out: IC50 βarr1; for Imax βarr1 (maximum observed inhibitory effect): normalized to Imax of navarixin = 100%
Procedure: Cells were trypsinized and resuspended at 3 × 10^5 cell/mL in the growth medium, whereafter they were incubated for 2 hours at RT. Cells were transfected in suspension using FuGENE® HD Transfection Reagent at a 3:1 reagent to DNA ratio in Opti-MEMTM I Reduced-Serum Medium, with the final DNA concentration of 1 μg/μL. The transfection mixture was incubated for 10 min at RT before adding it to the cell suspension. Transfected cells were seeded at 3.0 × 10^4 cells/well in a white, clear, flat-bottom 96-well plate coated with 100 μg/mL poly-D-lysin ([…], Sigma Aldrich) and incubated for 48 h at 37°C and 5% CO2. HEK293A cells were transiently co-transfected with plasmids encoding β-arrestin1 protein tagged with NLuc (donor) and CXCR2 protein tagged with mNeonGreen (mNG) acceptor in a 1:10 donor to acceptor ratio, as described previously ([Luís et al., 2022]). All subsequent steps are identical to those in “NanoBRET-based G protein activation inhibition assay,” which are described above. Measurements were acquired using a 440- to 480-nm donor emission filter (#0200-6179, Molecular Devices) and a 515- to 575-nm acceptor emission filter (#0200-6203, Molecular Devices) BRET ratios were extracted from ScreenWorks software (Molecular Devices) and represent the ratio between the acceptor emission of […]2 or mNG (G protein or β-arrestin recruitment, respectively) and NLuc donor emission. The basal BRET ratio was defined as the average BRET ratio of the five consecutive readings preceding ligand addition. Changes in BRET values post ligand administration (ΔBRET) were calculated for each well as a percentage difference to the previously defined basal BRET ratio. Average ΔBRET values were baseline corrected by subtracting the average negative control BRET ratio (unstimulated condition). […] AUCs were normalized to the positive control (stimulated condition); whereafter, dose-response curves were fitted to log (inhibitor) vs response (three parameters) in GraphPad 10.2.0 (GraphPad Software). […] Calculation 1: calculation of the BRET signal. • 1. […] NC correctedΔBRET=Δ[…]. • 4. a. Neg AUC of NC correctedΔBRET=Gα activation read out. b. Pos AUC of NC correctedΔBRET=β-arrestin recruitment.

SMILES | IC50 (CXCR2 [1]; CXCL1 at EC80) [nM] | Imax Gαi1 (maximum observed inhibitory effect) (CXCR2 [1]; CXCL1 at EC80) [%] | IC50 (CXCR2 [1]; CXCL2 at EC80) [nM] | Imax Gαi1 (maximum observed inhibitory effect) (CXCR2 [1]; CXCL2 at EC80) [%] | IC50 (CXCR2 [1]; CXCL3 at EC80) [nM] | Imax Gαi1 (maximum observed inhibitory effect) (CXCR2 [1]; CXCL3 at EC80) [%] | IC50 (CXCR2 [1]; CXCL5 at EC80) [nM] | Imax Gαi1 (maximum observed inhibitory effect) (CXCR2 [1]; CXCL5 at EC80) [%] | IC50 (CXCR2 [1]; CXCL6 at EC80) [nM] | Imax Gαi1 (maximum observed inhibitory effect) (CXCR2 [1]; CXCL6 at EC80) [%] | IC50 (CXCR2 [1]; CXCL7 at EC80) [nM] | Imax Gαi1 (maximum observed inhibitory effect) (CXCR2 [1]; CXCL7 at EC80) [%] | Imax Gαi1 (maximum observed inhibitory effect) (CXCR2 [1]; CXCL8 at EC80) [%] | Imax βarr1 (maximum observed inhibitory effect) (CXCR2 [2]; CXCL1 at EC80) [%] | Imax βarr1 (maximum observed inhibitory effect) (CXCR2 [2]; CXCL2 at EC80) [%] | Imax βarr1 (maximum observed inhibitory effect) (CXCR2 [2]; CXCL3 at EC80) [%] | Imax βarr1 (maximum observed inhibitory effect) (CXCR2 [2]; CXCL5 at EC80) [%] | Imax βarr1 (maximum observed inhibitory effect) (CXCR2 [2]; CXCL6 at EC80) [%] | Imax βarr1 (maximum observed inhibitory effect) (CXCR2 [2]; CXCL7 at EC80) [%] | Imax βarr1 (maximum observed inhibitory effect) (CXCR2 [2]; CXCL8 at EC80) [%] | further results
CC(CO)Nc1nc(SCc2cccc(F)c2F)nc2[nH]cnc12 (centres unmarked) [MVH-15] | > 15000 | <50 | > 15000 | <50 | > 15000 | <50 | > 15000 | <50 | > 15000 | <50 | > 15000 | <50 | <50 | 100 | 100 | 100 | 100 | 100 | 100 | 100 | IC50 (CXCR2 [1]; CXCL8 at EC80): > 15000 nM; IC50 (CXCR2 [2]; CXCL1 at EC80): 3510 ± 830 nM; IC50 (CXCR2 [2]; CXCL2 at EC80): 2060 ± 570 nM; IC50 (CXCR2 [2]; CXCL3 at EC80): 4290 ± 1160 nM; IC50 (CXCR2 [2]; CXCL5 at EC80): 2100 ± 360 nM; IC50 (CXCR2 [2]; CXCL6 at EC80): 2280 ± 570 nM; IC50 (CXCR2 [2]; CXCL7 at EC80): 700 ± 140 nM; IC50 (CXCR2 [2]; CXCL8 at EC80): 4070 ± 1600 nM
CC(CO)Nc1nc(SCc2cccc(F)c2F)nc2ncsc12 (centres unmarked) [MVH-22] | > 15000 | <50 | > 15000 | <50 | > 15000 | <50 | > 15000 | <50 | > 15000 | <50 | > 15000 | <50 | <50 | 100 | 100 | 100 | 100 | 100 | 97.6 ± 3.45 | 100 | IC50 (CXCR2 [1]; CXCL8 at EC80): > 15000 nM; IC50 (CXCR2 [2]; CXCL1 at EC80): 2850 ± 680 nM; IC50 (CXCR2 [2]; CXCL2 at EC80): 1500 ± 180 nM; IC50 (CXCR2 [2]; CXCL3 at EC80): 3440 ± 750 nM; IC50 (CXCR2 [2]; CXCL5 at EC80): 1960 ± 530 nM; IC50 (CXCR2 [2]; CXCL6 at EC80): 1470 ± 200 nM; IC50 (CXCR2 [2]; CXCL7 at EC80): 500 ± 70 nM; IC50 (CXCR2 [2]; CXCL8 at EC80): 2660 ± 300 nM
CC(CO)Nc1nc(SCc2cccc(F)c2F)nc2nc(N)sc12 (centres unmarked) [MVH-23] | – | 94.85 ± 3.70 | – | 100 | – | 100 | – | 94.29 ± 2.32 | – | 100 | – | 100 | 100 | 100 | 100 | 100 | 100 | 100 | 100 | 100 | –
CCCC(C)CSc1nc(NC(C)CO)c2nn[nH]c2n1 (centres unmarked) [MVH-82] | > 15000 | <50 | > 15000 | <50 | > 15000 | <50 | > 15000 | <50 | > 15000 | <50 | > 15000 | <50 | <50 | 97.29 ± 1.61 | 96.96 ± 5.75 | 100 | 100 | 100 | 98.49 ± 1.76 | 100 | IC50 (CXCR2 [1]; CXCL8 at EC80): > 15000 nM; IC50 (CXCR2 [2]; CXCL1 at EC80): 2130 ± 340 nM; IC50 (CXCR2 [2]; CXCL2 at EC80): 740 ± 160 nM; IC50 (CXCR2 [2]; CXCL3 at EC80): 2530 ± 150 nM; IC50 (CXCR2 [2]; CXCL5 at EC80): 1330 ± 470 nM; IC50 (CXCR2 [2]; CXCL6 at EC80): 880 ± 470 nM; IC50 (CXCR2 [2]; CXCL7 at EC80): 370 ± 110 nM; IC50 (CXCR2 [2]; CXCL8 at EC80): 2320 ± 720 nM
